Data on four compounds can be found in article PMC3728097 (PLoS ONE, 2013).

“Also recorded” adds a separate entry of the source.

Assay [1] addresses α7 nAChRs in the monkey brain (Macaca mulatta, UniProt Q866A2). Format: in vivo. Conditions: monkey SPECT, pretreatment SSR180711 5.0 mg/kg i.v. How it is done: Four monkeys (male, 7 year olds, 8 kg) were selected for SPECT imaging. Immediately after HPLC column purification, 50 µg (74 MBq) of the ^131I-CHIBA-1001 in 2 mL of normal saline were injected into the monkeys via intravenous administration after administration of saline (control) or SSR180711 (5.0 mg/kg, i.v.). […] At 0.5, 1.5, and 2 h after injection, imaging was performed in the Department of Nuclear Medicine, Peking University First Hospital, using SPECT (SPR SPECT; GE Healthcare, Inc.) equipped with a high-energy general purpose (HEGP) collimator. Static images (200,000 counts), obtained with a zoom factor of 2.0, were digitally stored in a 64 × 64 matrix.

The target of assay [2] is T1, α7 nAChRs in the rat brain (Rattus norvegicus, UniProt Q05941).
T1 construct: aliquots of a membrane suspension (200 µl), ^125I-CHIBA-1001 and the indicated concentrations of test drug; from tissue; host or cells: rat brain membranes (Sprague Dawley)
T1 sequence (Q05941 23-502): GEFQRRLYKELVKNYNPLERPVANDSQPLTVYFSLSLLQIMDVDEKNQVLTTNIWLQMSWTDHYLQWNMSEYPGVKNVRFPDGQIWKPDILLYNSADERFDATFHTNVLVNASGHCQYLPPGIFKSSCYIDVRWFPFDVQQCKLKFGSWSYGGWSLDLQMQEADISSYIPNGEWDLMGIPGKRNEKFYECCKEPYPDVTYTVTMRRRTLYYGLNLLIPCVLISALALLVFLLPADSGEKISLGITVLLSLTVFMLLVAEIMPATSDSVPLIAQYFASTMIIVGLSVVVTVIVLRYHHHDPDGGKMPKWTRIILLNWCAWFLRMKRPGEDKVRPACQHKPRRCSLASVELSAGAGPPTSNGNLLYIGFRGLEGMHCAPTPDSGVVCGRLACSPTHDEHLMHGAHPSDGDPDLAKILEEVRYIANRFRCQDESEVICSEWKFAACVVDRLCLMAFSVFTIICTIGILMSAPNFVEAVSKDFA
Nature of the assay: In vitro saturation binding assay of ^125I-CHIBA-1001 in rat brain membranes. Conditions: 4°C, n = 5, mean ± S.E.M.
Protocol: Male SD (Sprague Dawley) rats (8–10 week olds, 180–200 g) were used for the experiments. After sacrificing the rats by decapitation, the brains were rapidly removed from the skulls.
The tissues of each brain region were homogenized in 15 volumes of 50 mM Tris–HCl buffer (120 mM NaCl, 2 mM KCl, 1 mM CaCl2, 1 mM MgCl 2, pH 7.4 at 4°C) using a Polytron homogenizer at setting No. 5 for 30s on ice. The membranes were centrifuged in 50 ml polypropylene tube at 48,000 g for 20 min at 4°C. The supernatant was discarded and the pellet re-suspended, homogenized and centrifuged as above. The membrane pellet was washed and re-suspended in ice-cold buffer and was then centrifuged two more times. The final pellet was re-suspended in 10 volumes of the same buffer.
Assays of the binding of ^125I-CHIBA-1001 to α7 nAChRs in the rat brain were performed according to the method published previously [21], [22]. The reaction mixtures were consisted of aliquots of a membrane suspension (200 µl), ^125I-CHIBA-1001 and the indicated concentrations of test drug in a final volume of 0.5 ml in duplicate. Non-specific binding was estimated in the presence of 30 µM SSR180711. Binding reaction was conducted for 150 min at 4°C for the equilibrium saturation and inhibition studies.

For assay [3], the target named is α7 nAChRs. The conditions noted are these: cited from earlier work.
Where [4] appears, read: blocked cerebellum as nonspecific binding.

Sequence of α7 nAChRs in the monkey brain (Q866A2 23-502): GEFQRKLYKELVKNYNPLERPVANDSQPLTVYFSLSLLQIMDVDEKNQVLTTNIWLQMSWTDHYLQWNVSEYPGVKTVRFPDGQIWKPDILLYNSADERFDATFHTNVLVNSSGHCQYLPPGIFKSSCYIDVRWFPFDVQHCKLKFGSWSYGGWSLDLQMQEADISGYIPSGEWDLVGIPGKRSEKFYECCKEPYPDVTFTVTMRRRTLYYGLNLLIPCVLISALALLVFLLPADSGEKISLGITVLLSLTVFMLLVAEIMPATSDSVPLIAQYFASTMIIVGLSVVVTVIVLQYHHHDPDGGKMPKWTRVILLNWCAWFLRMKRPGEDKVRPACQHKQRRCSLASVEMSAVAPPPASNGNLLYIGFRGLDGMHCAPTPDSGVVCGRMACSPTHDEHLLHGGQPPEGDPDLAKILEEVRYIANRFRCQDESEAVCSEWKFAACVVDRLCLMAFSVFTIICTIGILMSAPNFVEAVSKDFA

For the compound `O=C(Oc1ccc(Br)cc1)N1CCN2CCC1CC2` [SSR180711], in assay [1], the “blockade of ^131I-CHIBA-1001 uptake in the cerebellum” value is on record as “minimal” and the “effect of pretreatment on uptake of ^131I-CHIBA-1001 radioactivity in the brain” value is on record as “blocked the radioactive uptake in the brain successfully; also recorded: decreased”. Besides, in assay [1] (setting [4]), the “decrease of specific binding of ^131I-CHIBA-1001 in the frontal cortex” value amounted to 38.5±2.1% and the “decrease of specific binding of ^131I-CHIBA-1001 in the thalamus” value turned out to be 35.7±2.8%.
In the case of `O=C(Oc1ccc(I)cc1)N1CCN2CCC1CC2` [^125I-CHIBA-1001], in assay [2] (read-out: apparent Kd), the Kd amounted to 81.9 ± 7.95 nM.
Consider [^125I]methyllycaconitine [^125I-MLA], for which the Kd in assay [3] was 1.8 nM.
The compound `O=C(Oc1ccc([125I])cc1)N1CCN2CCC1CC2` [^125I-CHIBA-1001] gave a B max in assay [2] of 63.97±17.45 fmol/mg protein.
